The subject of one experiment is calbindin D9K. The experiment can be described thus: Intestinal calbindin D9K expression in aged rats (Western blotting). Format: in vivo. As to conditions: aged rats (9 month, male, SD-IGS), 1.9% by weight in feed for 10 days, compared to control group; FIG. 4. The source says: On 10 days after the test started, rats were made starved by fasting for all day and night, then the small intestines were taken out, followed by extraction, immediate opening of the intestinal canal and stripping off the epitherial mucous membrane to prepare protein extract samples according to the method described by H. J. Armbrecht et al. (Am. J. Physiol., 236(6), e769-e774, 1979). These samples were separated by SDS-PAGE, followed by transferring on PVDF membrane (IPVH, pore size of 0.45, Millipore) in accordance with a usual procedure and assaying of calbindin D9K by the Western blotting method. Rabbit anti-calbindin D9K antibody (from Research Diagnostic Inc.) as the primary antibody and HRP anti-rabbit IgG (Bio-Rad) as the secondary antibody were used, and detected using ECL Plus kit (Bio-Rad). The detected protein bands were further quantified using Scion Image-analyzing software (from Scion Corp.).
In general terms: Immunoblotting shows a protein as a band on a membrane.

A further experiment deals with 24-hydroxylase gene. The experiment can be described thus: 24-hydroxylase gene expression (mRNA, RT-PCR) in Caco-2 cells. Format: cell-based. As to conditions: 72 hours, 1 mmol/L glucose 1-phosphate sodium salt or 10 nmol/L 1α,25-dihydroxyvitamin D, FIG. 2. The source says: (§1) As a target cell of 1α,25-dihydroxyvitamin D and a sugar-phosphate ester, Caco-2 cells (from Dainippon Pharmaceutical Co. Ltd.) were employed. Caco-2 cells are known to differentiate to epitherial-like cells of small intestine. The Caco-2 cells were suspended in culture medium (10% fetal calf serum, none essential amino acids for MEM, […]/MEM Earle) and added to an insert of a fibrillar collagen culture plate (from Becton Dickinson Inc.). To the plate also, the culture medium was added, and cultured according to a usual method. The media in the insert and the plate were renewed at a regular interval, and the culture was subjected to a test at 15 days of incubation.

For the next experiment, the system named is CaT1 gene. Briefly: CaT1 gene expression (mRNA, RT-PCR) in Caco-2 cells. Format: cell-based. The note with it: 72 hours, 1 mmol/L glucose 1-phosphate sodium salt or 10 nmol/L 1α,25-dihydroxyvitamin D, FIG. 3.
Excerpt: as §1

Regarding `O=P([O-])([O-])O[C@H]1O[C@H](CO)[C@@H](O)[C@H](O)[C@H]1O.[Na+].[Na+]` [glucose 1-phosphate sodium salt], the “expression of calbindin D9K in small intestine” value in the experiment with calbindin D9K is given as “significantly enhance”.

Take 1α,25-dihydroxyvitamin D: the “gene expression of 24-hydroxylase (mRNA amount divided by housekeeping gene G3PDH)” value with 24-hydroxylase gene was “significantly enhanced”. Moreover, the “gene expression of CaT1 (mRNA amount divided by housekeeping gene G3PDH)” value with CaT1 gene was “significantly enhanced”.

For the origin of these results see patent US20100197611A1, “ALTERNATIVE AGENT WITH VITAMIN D-LIKE ACTIVITY AND AN IMPROVING AGENT FOR INTESTINAL FUNCTION” (priority 2003, published 2010).
